Test results reported in ChEMBL document CHEMBL3045943, “Novel N-aryl(alkaryl)-2-[(3-R-2-oxo-2H-[1,2,4]triazino[2,3-c]quinazoline-6-yl)thio]acetamides: synthesis, cytotoxicity, anticancer activity, COMPARE analysis and docking” (2013).

How the values were obtained:
Type in all cases: functional
DU-145 = experiment: Cytotoxicity against Homo sapiens (human) DU145 cells assessed as cell growth at 10 uM after 48 hr by SRB assay relative to control; settings: DU-145, 48 h, read-out: Activity
CAKI-1 = experiment: Cytotoxicity against Homo sapiens (human) Caki1 cells assessed as cell growth at 10 uM after 48 hr by SRB assay relative to control; settings: CAKI-1, 48 h, read-out: Activity
786-0 = experiment: Cytotoxicity against Homo sapiens (human) 786-0 cells assessed as cell growth at 10 uM after 48 hr by SRB assay relative to control; settings: 786-0, 48 h, read-out: Activity
OVCAR-8 = experiment: Cytotoxicity against Homo sapiens (human) OVCAR8 cells assessed as cell growth at 10 uM after 48 hr by SRB assay relative to control; settings: OVCAR-8, 48 h, read-out: Activity
IGROV-1 = experiment: Cytotoxicity against Homo sapiens (human) IGROV1 cells assessed as cell growth at 10 uM after 48 hr by SRB assay relative to control; settings: IGROV-1, 48 h, read-out: Activity
MDA-MB-435 = experiment: Cytotoxicity against Homo sapiens (human) MDA-MB-435 cells assessed as cell growth at 10 uM after 48 hr by SRB assay relative to control; settings: MDA-MB-435, 48 h, read-out: Activity
LOX IMVI = experiment: Cytotoxicity against Homo sapiens (human) LOXIMVI cells assessed as cell growth at 10 uM after 48 hr by SRB assay relative to control; settings: read-out: Activity
SF-295 = experiment: Cytotoxicity against Homo sapiens (human) SF295 cells assessed as cell growth at 10 uM after 48 hr by SRB assay relative to control; settings: SF-295, 48 h, read-out: Activity
SF-268 = experiment: Cytotoxicity against Homo sapiens (human) SF268 cells assessed as cell growth at 10 uM after 48 hr by SRB assay relative to control; settings: SF-268, 48 h, read-out: Activity
NCI-H460 = experiment: Cytotoxicity against Homo sapiens (human) NCI-H460 cells assessed as cell growth at 10 uM after 48 hr by SRB assay relative to control; settings: NCI-H460, 48 h, read-out: Activity
EKVX = experiment: Cytotoxicity against Homo sapiens (human) EKVX cells assessed as cell growth at 10 uM after 48 hr by SRB assay relative to control; settings: read-out: Activity
A549 = experiment: Cytotoxicity against Homo sapiens (human) A549 cells assessed as cell growth at 10 uM after 48 hr by SRB assay relative to control; settings: A549, 48 h, read-out: Activity
[1] = tested on: Photobacterium leiognathi; experiment: Growth inhibition of Photobacterium leiognathi Sh1 assessed as bio-luminescence at 0.1 mg/ml after 16 to 18 hr by chronic action test relative to control; set-up: scale not given: the % may be the effect or the level left
[2] = tested on: Photobacterium leiognathi; experiment: Growth inhibition of Photobacterium leiognathi Sh1 assessed as bio-luminescence at 0.025 mg/ml after 16 to 18 hr by chronic action test relative to control; set-up: scale not given: the % may be the effect or the level left
[3] = tested on: Photobacterium leiognathi; experiment: Growth inhibition of Photobacterium leiognathi Sh1 assessed as bio-luminescence at 0.25 mg/ml after 10 min by acute action test relative to control; set-up: scale not given: the % may be the effect or the level left
[4] = tested on: Photobacterium leiognathi; experiment: Growth inhibition of Photobacterium leiognathi Sh1 assessed as bio-luminescence at 0.1 mg/ml after 10 min by acute action test relative to control; set-up: scale not given: the % may be the effect or the level left
[5] = tested on: Photobacterium leiognathi; experiment: Growth inhibition of Photobacterium leiognathi Sh1 assessed as bio-luminescence at 0.025 mg/ml after 10 min by acute action test relative to control; set-up: scale not given: the % may be the effect or the level left
OVCAR-3 = experiment: Cytotoxicity against Homo sapiens (human) OVCAR3 cells assessed as cell growth at 10 uM after 48 hr by SRB assay relative to control; settings: OVCAR-3, 48 h, read-out: Activity
SNB-75 = experiment: Cytotoxicity against Homo sapiens (human) SNB75 cells after 48 hr by SRB assay; settings: SNB-75, 48 h; for TGI: read-out: pTGI (converted)
HOP-62 = experiment: Cytotoxicity against Homo sapiens (human) HOP62 cells after 48 hr by SRB assay; settings: HOP-62, 48 h; for TGI: read-out: pTGI (converted)
Hs-578T = experiment: Cytotoxicity against Homo sapiens (human) Hs 578T cells after 48 hr by SRB assay; settings: for TGI: read-out: pTGI (converted)
RXF 393 = experiment: Cytotoxicity against Homo sapiens (human) RXF393 cells after 48 hr by SRB assay; settings: RXF 393, 48 h; for TGI: read-out: pTGI (converted)
SW-620 = experiment: Cytotoxicity against Homo sapiens (human) SW620 cells assessed as cell growth at 10 uM after 48 hr by SRB assay relative to control; settings: SW-620, 48 h, read-out: Activity
KM12 = experiment: Cytotoxicity against Homo sapiens (human) KM12 cells assessed as cell growth at 10 uM after 48 hr by SRB assay relative to control; settings: KM12, 48 h, read-out: Activity
HCT-116 = experiment: Cytotoxicity against Homo sapiens (human) HCT116 cells assessed as cell growth at 10 uM after 48 hr by SRB assay relative to control; settings: HCT-116, 48 h, read-out: Activity
MOLT-4 = experiment: Cytotoxicity against Homo sapiens (human) MOLT4 cells assessed as cell growth at 10 uM after 48 hr by SRB assay relative to control; settings: MOLT-4, 48 h, read-out: Activity
K562 = experiment: Cytotoxicity against Homo sapiens (human) K562 cells assessed as cell growth at 10 uM after 48 hr by SRB assay relative to control; settings: K562, 48 h, read-out: Activity
HL-60(TB) = experiment: Cytotoxicity against Homo sapiens (human) HL-60(TB) cells assessed as cell growth at 10 uM after 48 hr by SRB assay relative to control; settings: HL-60, 48 h, read-out: Activity
SR = experiment: Cytotoxicity against Homo sapiens (human) SR cells assessed as cell growth at 10 uM after 48 hr by SRB assay relative to control; settings: read-out: Activity
U-251 = experiment: Cytotoxicity against Homo sapiens (human) U251 cells assessed as cell growth at 10 uM after 48 hr by SRB assay relative to control; settings: U-251, 48 h, read-out: Activity
[6] = tested on: Photobacterium leiognathi; experiment: Growth inhibition of Photobacterium leiognathi Sh1 assessed as bio-luminescence at 0.25 mg/ml after 16 to 18 hr by chronic action test relative to control; set-up: scale not given: the % may be the effect or the level left
UO-31 = experiment: Cytotoxicity against Homo sapiens (human) UO31 cells assessed as cell growth at 10 uM after 48 hr by SRB assay relative to control; settings: UO-31, 48 h, read-out: Activity
A498 = experiment: Cytotoxicity against Homo sapiens (human) A498 cells after 48 hr by SRB assay; settings: A498, 48 h

`COc1ccc(-c2nn3c(SCC(=O)Nc4ccccc4Cl)nc4ccccc4c3nc2=O)cc1` gave a growth at 10 µM (DU-145) of -17.9%, a growth at 10 µM (CAKI-1) of 54.7% and a growth at 10 µM (786-0) of 32.9%. For the same molecule, the growth at 10 µM (OVCAR-8) was 31.5%, the growth at 10 µM (IGROV-1) was 38.4% and the growth at 10 µM (MDA-MB-435) was 15.7%. It also gave a growth at 10 µM (LOX IMVI) of 42.1%, a growth at 10 µM (SF-295) of 23.9% and a growth at 10 µM (SF-268) of 53.9%. The growth at 10 µM (NCI-H460) was 24.1%, the growth at 10 µM (EKVX) was 27.2% and the growth at 10 µM (A549) was -29.6%. It also gave an Activity [1] of 35.4%, an Activity [2] of 54.5% and an Activity [3] of 75%. It also gave an Activity [4] of 87.5%, an Activity [5] of 83.3% and a growth at 10 µM (OVCAR-3) of 7.18%. The GI50 (SNB-75) was 2000 nM, the LC50 (SNB-75) was 25.1 µM and the TGI (SNB-75) was 6.03 µM. For the same molecule, the GI50 (HOP-62) was 2880 nM, the LC50 (HOP-62) was 35.5 µM and the TGI (HOP-62) was 9.77 µM. It also gave a GI50 (Hs-578T) of 1950 nM, an LC50 (Hs-578T) of over 100 µM and a TGI (Hs-578T) of 6.76 µM. It also gave a GI50 (RXF 393) of 2630 nM, an LC50 (RXF 393) of 39.8 µM and a TGI (RXF 393) of 7.76 µM. The growth at 10 µM (SW-620) was 13.9%, the growth at 10 µM (KM12) was 34.8% and the growth at 10 µM (HCT-116) was 12.2%. It also gave a growth at 10 µM (MOLT-4) of 36.3%, a growth at 10 µM (K562) of 26.9% and a growth at 10 µM (HL-60(TB)) of 38.6%. For the same molecule, the growth at 10 µM (SR) was 37%, the growth at 10 µM (U-251) was -22.6% and the Activity [6] was 33.3%.

`COc1ccccc1CNC(=O)CSc1nc2ccccc2c2nc(=O)c(-c3ccccc3)nn12` showed a growth at 10 µM (DU-145) of 0.48%, a growth at 10 µM (CAKI-1) of -13.6% and a growth at 10 µM (786-0) of 35.3%. The growth at 10 µM (IGROV-1) was 18.8%, the growth at 10 µM (MDA-MB-435) was 27.7% and the growth at 10 µM (LOX IMVI) was 27.7%. The growth at 10 µM (SF-295) was 18.8%, the growth at 10 µM (SF-268) was 43.5% and the growth at 10 µM (NCI-H460) was 8.38%. It also gave a growth at 10 µM (EKVX) of 31.4%, a growth at 10 µM (A549) of 39.7% and an Activity [1] of 80%. For the same molecule, the Activity [2] was 150%, the Activity [3] was 122.6% and the Activity [4] was 99.1%. The Activity [5] was 111.5%, the growth at 10 µM (OVCAR-3) was 21.3% and the GI50 (SNB-75) was 2240 nM. The LC50 (SNB-75) was 43.7 µM, the TGI (SNB-75) was 6.61 µM and the GI50 (HOP-62) was 2340 nM. For the same molecule, the LC50 (HOP-62) was 19.5 µM, the TGI (HOP-62) was 5.5 µM and the growth at 10 µM (UO-31) was 43.8%. For the same molecule, the GI50 (Hs-578T) was 3090 nM, the LC50 (Hs-578T) was over 100 µM and the TGI (Hs-578T) was 9.12 µM. The GI50 (RXF 393) was 1780 nM, the LC50 (RXF 393) was over 100 µM and the TGI (RXF 393) was over 100 µM. For the same molecule, the GI50 (A498) was 1170 nM, the LC50 (A498) was over 100 µM and the TGI (A498; read-out: pTGI (converted)) was 4.07 µM. For the same molecule, the growth at 10 µM (SW-620) was 30.2%, the growth at 10 µM (KM12) was 43.3% and the growth at 10 µM (HCT-116) was 33.1%. The growth at 10 µM (MOLT-4) was 52.3%, the growth at 10 µM (K562) was 26.4% and the growth at 10 µM (HL-60(TB)) was 41.9%. For the same molecule, the growth at 10 µM (SR) was 42.1% and the Activity [6] was 73.3%.
